Measured values from patent publication US12479847B2 (DANA-FARBER CANCER INSTITUTE, INC., priority 2019, dated 2025).

Legend:
Test in all cases: KINOMEscan (ScanMAX) kinase profiling
Assay type in all cases: binding
panel of 468 kinases [1] = molecular target: T1, panel of 468 kinases (Homo sapiens, UniProt P42680); conditions: TEC; 1 μM; read-out: % control
T1 construct: purchased KINOMEscan (ScanMAX) service
T1 sequence (P42680 1-631): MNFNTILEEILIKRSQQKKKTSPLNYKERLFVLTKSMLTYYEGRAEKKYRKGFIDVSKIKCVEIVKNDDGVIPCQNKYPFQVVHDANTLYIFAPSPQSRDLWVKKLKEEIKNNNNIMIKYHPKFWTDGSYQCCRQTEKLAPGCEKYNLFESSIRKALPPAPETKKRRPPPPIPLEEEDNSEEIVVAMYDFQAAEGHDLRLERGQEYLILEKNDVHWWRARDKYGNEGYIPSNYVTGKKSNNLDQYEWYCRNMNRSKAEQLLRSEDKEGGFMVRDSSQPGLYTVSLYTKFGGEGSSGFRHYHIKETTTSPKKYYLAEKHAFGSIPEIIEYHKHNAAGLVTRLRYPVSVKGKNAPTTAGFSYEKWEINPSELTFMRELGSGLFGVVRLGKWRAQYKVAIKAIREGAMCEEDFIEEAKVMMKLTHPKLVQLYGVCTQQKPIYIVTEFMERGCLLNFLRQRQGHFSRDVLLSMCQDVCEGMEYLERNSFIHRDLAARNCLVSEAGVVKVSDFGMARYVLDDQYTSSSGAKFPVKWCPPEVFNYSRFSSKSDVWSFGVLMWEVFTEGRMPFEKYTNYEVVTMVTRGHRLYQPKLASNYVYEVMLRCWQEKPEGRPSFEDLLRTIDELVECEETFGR

panel of 468 kinases [2] = molecular target: T2, panel of 468 kinases (Homo sapiens, UniProt Q16512); conditions: PKN1; 1 μM; read-out: % control
T2 construct: purchased KINOMEscan (ScanMAX) service
T2 sequence (Q16512 whole entry): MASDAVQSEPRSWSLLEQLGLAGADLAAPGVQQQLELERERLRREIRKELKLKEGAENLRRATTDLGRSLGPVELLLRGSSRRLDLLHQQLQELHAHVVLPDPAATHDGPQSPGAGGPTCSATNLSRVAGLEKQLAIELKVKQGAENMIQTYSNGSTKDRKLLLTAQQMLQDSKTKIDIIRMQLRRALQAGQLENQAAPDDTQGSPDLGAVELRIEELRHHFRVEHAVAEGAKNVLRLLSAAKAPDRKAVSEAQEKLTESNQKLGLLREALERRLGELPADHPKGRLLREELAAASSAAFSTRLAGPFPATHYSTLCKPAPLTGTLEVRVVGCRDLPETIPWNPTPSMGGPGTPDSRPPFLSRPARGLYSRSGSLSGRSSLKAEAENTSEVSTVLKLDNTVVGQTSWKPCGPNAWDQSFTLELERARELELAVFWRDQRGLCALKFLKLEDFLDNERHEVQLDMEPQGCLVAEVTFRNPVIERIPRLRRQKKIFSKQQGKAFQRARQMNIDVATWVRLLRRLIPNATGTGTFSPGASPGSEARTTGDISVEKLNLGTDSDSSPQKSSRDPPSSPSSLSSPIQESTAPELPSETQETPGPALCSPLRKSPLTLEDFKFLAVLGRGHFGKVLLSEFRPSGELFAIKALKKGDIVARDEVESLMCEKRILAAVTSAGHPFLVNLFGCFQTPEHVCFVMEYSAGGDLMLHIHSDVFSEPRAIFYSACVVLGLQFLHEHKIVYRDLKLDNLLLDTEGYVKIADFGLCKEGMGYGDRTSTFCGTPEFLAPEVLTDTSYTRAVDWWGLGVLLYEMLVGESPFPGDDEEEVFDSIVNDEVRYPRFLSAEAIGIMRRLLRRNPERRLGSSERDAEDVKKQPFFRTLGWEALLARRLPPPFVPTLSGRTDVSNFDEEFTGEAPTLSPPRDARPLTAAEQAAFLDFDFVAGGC

panel of 468 kinases [3] = molecular target: T3, panel of 468 kinases (Homo sapiens, UniProt O14757); conditions: CHEK1; 1 μM; read-out: % control
T3 construct: purchased KINOMEscan (ScanMAX) service
T3 sequence (O14757 1-476): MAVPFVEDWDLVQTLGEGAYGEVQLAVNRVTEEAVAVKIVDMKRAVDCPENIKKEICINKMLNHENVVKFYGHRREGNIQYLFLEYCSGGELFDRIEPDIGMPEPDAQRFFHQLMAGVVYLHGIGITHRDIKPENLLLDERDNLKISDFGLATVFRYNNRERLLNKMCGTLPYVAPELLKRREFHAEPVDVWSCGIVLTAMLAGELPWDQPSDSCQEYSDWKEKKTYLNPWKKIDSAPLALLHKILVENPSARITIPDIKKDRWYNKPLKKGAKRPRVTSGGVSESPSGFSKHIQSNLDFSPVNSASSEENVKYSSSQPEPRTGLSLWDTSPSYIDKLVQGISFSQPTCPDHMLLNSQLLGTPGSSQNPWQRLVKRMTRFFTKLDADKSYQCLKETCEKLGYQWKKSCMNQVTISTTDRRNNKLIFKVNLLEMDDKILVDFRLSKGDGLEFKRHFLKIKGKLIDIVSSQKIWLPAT

panel of 468 kinases [4] = molecular target: T4, panel of 468 kinases (Mycobacterium tuberculosis, UniProt P9WI81); conditions: read-out: % control
T4 construct: purchased KINOMEscan (ScanMAX) service
T4 sequence (P9WI81 whole entry): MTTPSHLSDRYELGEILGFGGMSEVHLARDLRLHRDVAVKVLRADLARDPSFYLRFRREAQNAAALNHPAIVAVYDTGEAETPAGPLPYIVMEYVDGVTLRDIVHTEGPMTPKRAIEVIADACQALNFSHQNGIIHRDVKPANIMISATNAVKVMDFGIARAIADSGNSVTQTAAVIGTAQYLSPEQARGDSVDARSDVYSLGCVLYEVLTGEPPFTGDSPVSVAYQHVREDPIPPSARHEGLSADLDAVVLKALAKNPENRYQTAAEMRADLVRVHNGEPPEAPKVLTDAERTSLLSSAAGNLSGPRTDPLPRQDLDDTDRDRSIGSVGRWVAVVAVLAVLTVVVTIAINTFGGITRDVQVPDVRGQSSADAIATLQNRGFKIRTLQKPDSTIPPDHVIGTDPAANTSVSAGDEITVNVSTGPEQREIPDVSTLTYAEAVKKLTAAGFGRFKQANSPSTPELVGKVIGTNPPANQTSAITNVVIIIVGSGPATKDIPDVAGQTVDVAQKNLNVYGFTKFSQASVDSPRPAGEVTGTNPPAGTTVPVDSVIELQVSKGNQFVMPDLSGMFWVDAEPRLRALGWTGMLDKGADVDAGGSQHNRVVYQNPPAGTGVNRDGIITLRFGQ

panel of 468 kinases [5] = molecular target: T5, panel of 468 kinases (Homo sapiens, UniProt Q6P2M8); conditions: CAMK1B; 1 μM; read-out: % control
T5 construct: purchased KINOMEscan (ScanMAX) service
T5 sequence (Q6P2M8 whole entry): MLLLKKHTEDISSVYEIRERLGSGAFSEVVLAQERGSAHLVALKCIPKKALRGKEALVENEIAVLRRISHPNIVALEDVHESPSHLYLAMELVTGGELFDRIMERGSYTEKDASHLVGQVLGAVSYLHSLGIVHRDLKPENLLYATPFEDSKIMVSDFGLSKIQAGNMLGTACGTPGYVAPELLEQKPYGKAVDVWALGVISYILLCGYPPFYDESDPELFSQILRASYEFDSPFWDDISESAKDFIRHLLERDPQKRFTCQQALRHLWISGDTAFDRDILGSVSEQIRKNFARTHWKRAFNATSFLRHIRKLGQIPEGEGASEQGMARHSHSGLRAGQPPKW

panel of 468 kinases [6] = molecular target: T6, panel of 468 kinases (Homo sapiens, UniProt P16591); conditions: FER; 1 μM; read-out: % control
T6 construct: purchased KINOMEscan (ScanMAX) service
T6 sequence (P16591 whole entry): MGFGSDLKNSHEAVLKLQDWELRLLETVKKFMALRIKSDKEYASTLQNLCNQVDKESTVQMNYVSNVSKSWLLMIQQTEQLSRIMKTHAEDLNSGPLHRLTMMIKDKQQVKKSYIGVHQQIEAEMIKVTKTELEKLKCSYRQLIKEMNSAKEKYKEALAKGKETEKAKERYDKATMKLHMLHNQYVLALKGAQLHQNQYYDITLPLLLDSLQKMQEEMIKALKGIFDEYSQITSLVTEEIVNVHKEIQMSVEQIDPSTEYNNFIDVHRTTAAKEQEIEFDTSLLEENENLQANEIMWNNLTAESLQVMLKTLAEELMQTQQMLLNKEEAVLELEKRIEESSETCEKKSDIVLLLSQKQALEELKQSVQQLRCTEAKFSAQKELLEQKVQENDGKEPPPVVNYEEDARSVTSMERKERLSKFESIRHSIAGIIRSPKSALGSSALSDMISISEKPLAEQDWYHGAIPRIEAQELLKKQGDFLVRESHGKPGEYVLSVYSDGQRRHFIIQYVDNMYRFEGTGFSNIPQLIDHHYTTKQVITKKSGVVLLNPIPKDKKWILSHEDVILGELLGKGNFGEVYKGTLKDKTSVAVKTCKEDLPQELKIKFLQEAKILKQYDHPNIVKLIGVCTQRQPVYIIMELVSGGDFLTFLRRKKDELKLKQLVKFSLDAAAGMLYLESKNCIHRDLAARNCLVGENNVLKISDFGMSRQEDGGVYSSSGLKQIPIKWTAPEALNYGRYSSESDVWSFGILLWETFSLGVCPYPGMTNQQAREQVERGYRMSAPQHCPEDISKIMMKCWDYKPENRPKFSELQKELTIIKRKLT

panel of 468 kinases [7] = molecular target: T7, panel of 468 kinases (Homo sapiens, UniProt Q9BVS4); conditions: RIOK2; 1 μM; read-out: % control
T7 construct: purchased KINOMEscan (ScanMAX) service
T7 sequence (Q9BVS4 whole entry): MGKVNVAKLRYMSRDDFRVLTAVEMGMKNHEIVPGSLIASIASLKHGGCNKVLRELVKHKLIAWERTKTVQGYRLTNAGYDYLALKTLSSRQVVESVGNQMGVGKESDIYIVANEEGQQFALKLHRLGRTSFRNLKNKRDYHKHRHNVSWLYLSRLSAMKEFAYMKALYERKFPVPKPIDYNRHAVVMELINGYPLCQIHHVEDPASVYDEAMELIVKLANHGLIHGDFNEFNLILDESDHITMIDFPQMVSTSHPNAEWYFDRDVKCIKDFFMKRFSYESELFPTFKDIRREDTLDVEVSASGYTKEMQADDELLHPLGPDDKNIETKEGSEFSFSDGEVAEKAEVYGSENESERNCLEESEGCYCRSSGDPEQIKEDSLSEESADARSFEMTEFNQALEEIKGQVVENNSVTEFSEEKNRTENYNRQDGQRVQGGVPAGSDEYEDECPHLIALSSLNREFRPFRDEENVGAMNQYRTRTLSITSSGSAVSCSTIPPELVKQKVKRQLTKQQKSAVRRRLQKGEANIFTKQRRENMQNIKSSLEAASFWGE

panel of 468 kinases [8] = molecular target: T8, panel of 468 kinases (Homo sapiens, UniProt P45985); conditions: MEK4; 1 μM; read-out: % control
T8 construct: purchased KINOMEscan (ScanMAX) service
T8 sequence (P45985 1-399): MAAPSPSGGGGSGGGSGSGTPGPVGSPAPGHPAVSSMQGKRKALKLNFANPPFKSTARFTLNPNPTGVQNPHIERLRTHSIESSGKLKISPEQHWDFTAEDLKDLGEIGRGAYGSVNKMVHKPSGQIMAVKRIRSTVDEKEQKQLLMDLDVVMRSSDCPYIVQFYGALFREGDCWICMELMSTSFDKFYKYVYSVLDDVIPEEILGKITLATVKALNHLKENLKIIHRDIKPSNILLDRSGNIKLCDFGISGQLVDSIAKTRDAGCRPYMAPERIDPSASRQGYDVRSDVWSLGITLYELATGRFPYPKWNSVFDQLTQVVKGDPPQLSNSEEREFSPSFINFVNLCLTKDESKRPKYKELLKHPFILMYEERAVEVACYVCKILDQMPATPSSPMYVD

panel of 468 kinases [9] = molecular target: T9, panel of 468 kinases (Homo sapiens, UniProt P41240); conditions: CSK; 1 μM; read-out: % control
T9 construct: purchased KINOMEscan (ScanMAX) service
T9 sequence (P41240 whole entry): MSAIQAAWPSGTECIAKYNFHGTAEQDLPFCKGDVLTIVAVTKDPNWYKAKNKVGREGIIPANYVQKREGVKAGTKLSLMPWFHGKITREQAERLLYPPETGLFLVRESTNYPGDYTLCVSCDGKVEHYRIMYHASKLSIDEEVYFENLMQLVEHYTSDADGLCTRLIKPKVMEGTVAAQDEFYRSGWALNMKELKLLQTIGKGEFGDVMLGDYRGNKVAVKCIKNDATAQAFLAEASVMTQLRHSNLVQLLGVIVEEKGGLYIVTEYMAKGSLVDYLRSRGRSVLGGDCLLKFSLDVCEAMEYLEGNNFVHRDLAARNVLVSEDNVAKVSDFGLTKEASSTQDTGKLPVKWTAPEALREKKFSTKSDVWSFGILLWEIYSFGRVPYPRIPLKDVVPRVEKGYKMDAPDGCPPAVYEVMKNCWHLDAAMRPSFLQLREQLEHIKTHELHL

panel of 468 kinases [10] = molecular target: T10, panel of 468 kinases (Homo sapiens, UniProt O14965); conditions: AURKA; 1 μM; read-out: % control
T10 construct: purchased KINOMEscan (ScanMAX) service
T10 sequence (O14965 1-403): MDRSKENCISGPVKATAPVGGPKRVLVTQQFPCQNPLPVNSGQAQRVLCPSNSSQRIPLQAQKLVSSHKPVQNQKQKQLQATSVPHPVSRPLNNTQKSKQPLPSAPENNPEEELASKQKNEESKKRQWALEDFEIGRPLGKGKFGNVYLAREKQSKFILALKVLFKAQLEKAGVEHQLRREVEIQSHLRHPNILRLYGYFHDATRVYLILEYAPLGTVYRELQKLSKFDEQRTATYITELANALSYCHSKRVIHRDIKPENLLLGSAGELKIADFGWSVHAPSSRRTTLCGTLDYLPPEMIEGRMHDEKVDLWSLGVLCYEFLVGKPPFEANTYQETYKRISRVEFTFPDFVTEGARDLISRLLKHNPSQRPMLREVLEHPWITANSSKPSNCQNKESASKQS

panel of 468 kinases [11] = molecular target: T11, panel of 468 kinases (Homo sapiens, UniProt Q9H0K1); conditions: SIK2; 1 μM; read-out: % control
T11 construct: purchased KINOMEscan (ScanMAX) service
T11 sequence (Q9H0K1 whole entry): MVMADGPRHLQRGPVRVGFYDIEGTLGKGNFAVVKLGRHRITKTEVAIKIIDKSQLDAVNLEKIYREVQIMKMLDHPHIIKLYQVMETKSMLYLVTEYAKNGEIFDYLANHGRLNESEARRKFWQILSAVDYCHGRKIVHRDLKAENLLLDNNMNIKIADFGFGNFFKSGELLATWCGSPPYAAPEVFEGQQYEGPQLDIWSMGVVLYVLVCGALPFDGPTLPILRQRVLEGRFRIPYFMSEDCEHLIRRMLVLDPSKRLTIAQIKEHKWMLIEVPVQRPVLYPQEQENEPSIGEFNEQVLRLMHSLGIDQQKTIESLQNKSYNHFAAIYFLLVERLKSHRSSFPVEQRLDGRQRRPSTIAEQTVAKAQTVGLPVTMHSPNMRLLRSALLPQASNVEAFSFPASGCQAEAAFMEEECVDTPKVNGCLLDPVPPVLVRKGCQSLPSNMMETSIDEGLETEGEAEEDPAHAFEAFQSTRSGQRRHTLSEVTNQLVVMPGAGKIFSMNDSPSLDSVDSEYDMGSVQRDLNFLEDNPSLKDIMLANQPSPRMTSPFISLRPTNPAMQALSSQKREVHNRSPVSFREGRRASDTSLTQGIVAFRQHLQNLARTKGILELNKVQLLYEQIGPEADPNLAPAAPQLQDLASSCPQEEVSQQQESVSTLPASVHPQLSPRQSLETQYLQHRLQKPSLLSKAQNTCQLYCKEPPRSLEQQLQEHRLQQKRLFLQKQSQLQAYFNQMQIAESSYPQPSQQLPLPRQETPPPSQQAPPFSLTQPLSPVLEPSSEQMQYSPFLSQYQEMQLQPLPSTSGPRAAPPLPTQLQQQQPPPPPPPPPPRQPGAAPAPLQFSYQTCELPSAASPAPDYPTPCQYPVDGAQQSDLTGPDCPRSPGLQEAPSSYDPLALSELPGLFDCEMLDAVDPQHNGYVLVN

Structure (SMILES) | remaining binding at 1 µM (panel of 468 kinases [1]) [%] | remaining binding at 1 µM (panel of 468 kinases [2]) [%] | remaining binding at 1 µM (panel of 468 kinases [3]) [%] | remaining binding at 1 µM (panel of 468 kinases [4]) [%] | remaining binding at 1 µM (panel of 468 kinases [5]) [%] | remaining binding at 1 µM (panel of 468 kinases [6]) [%] | remaining binding at 1 µM (panel of 468 kinases [7]) [%] | remaining binding at 1 µM (panel of 468 kinases [8]) [%] | remaining binding at 1 µM (panel of 468 kinases [9]) [%] | remaining binding at 1 µM (panel of 468 kinases [10]) [%] | remaining binding at 1 µM (panel of 468 kinases [11]) [%]
CNc1nc(Nc2ccc(C(=O)N3CCC(N4CCOCC4)CC3)c3c2OCO3)nc2[nH]cc(Cl)c12 [Compound 75, (7-((5-chloro-4-(methylamino)-7H-pyrrolo[2,3-d]pyrimidin-2-yl)amino)benzo[d][1,3]dioxol-4-yl)(4-morpholinopiperidin-1-yl)methanone] | 100 | 98 | 67 | 68 | 44 | 56 | 53 | 0.05 | 100 | 45 | 100
CNc1nc(Nc2ccc(S(=O)(=O)N3CCC(N4CCOCC4)CC3)cc2OC)nc2[nH]cc(Cl)c12 [Compound 12, 5-chloro-N2-(2-methoxy-4-((4-morpholinopiperidin-1-yl)sulfonyl)phenyl)-N4-methyl-7H-pyrrolo[2,3-d]pyrimidine-2,4-diamine] | 93 | 100 | 100 | 93 | 95 | 44 | 94 | 26 | 100 | 93 | 100
CNc1nc(Nc2ccc(P3(=O)CCN(C4CCOCC4)CC3)cc2OC)nc2[nH]cc(Cl)c12 [Compound 77, 4-(4-((5-chloro-4-(methylamino)-7H-pyrrolo[2,3-d]pyrimidin-2-yl)amino)-3-methoxyphenyl)-1-(tetrahydro-2H-pyran-4-yl)-1,4-azaphosphinane 4-oxide] | 97 | 99 | 100 | 100 | 54 | 20 | 78 | 4.7 | 100 | 85 | 100
